Each compound was assayed on DU-145 cells (assay: Cell proliferation assay (Alamar-Blue) in DU-145 cells). Settings: 72 h; DU-145 human prostate carcinoma cells, 3 days incubation, Alamar-Blue fluorescence.
Format: cell-based
Protocol: Protocol for Cell Proliferation Assay:
This homogeneous assay involves simply adding a single reagent, the Alamar-Blue to the cell culture and measuring the fluorescence intensity (excitation wavelength=530 nm, emission wavelength=590 nm) after an incubation step. The Alamar-Blue reagent utilizes the redox dye resazurin, which is not fluorescent, but upon reduction by metabolically active cells is converted into a highly fluorescent product (resorufin). A decrease in fluorescence in the presence of a test compound indicates reduced proliferation. This change in signal is proportional to the number of viable cells and used as a measure of relative cytotoxicity. Therefore, the fluorescence intensity observed in this assay is a true measure of the viable proliferative cells.
• 2 mM stock of Paclitaxel in DMSO. • DMSO—(dimethylsulfoxide) (Panreac, Cat. number 141954.1611) • Resazurin sodium salt (Sigma, R-7071). 50 mM stock in DMSO. Equipment • Biomek FX Laboratory Automated Workstation (Beckman Coulter Inc., Fullerton, Calif.) • CO2 incubator (VWR Science, USA) • Bright line Hemacytometer (Z359629, Sigma, Ill., USA) Materials • 384-deep well plates (Greiner, No 781270) • 384-well optical bottom tissue culture plates (Greiner, No. 82051-282) Propagation CONDITIONS: 37° C., air 95%; carbon dioxide (CO2) 5%, humidified atmosphere. SUBCULTURING: • Cells were grown in 175 cm^2 flasks to 90-100% of confluency. • Culture media (RPMI-1640 (Paneco, C310)+10% FBS (fetal bovine serum)) was aspirated and cell layer was briefly rinsed with 0.53 mM EDTA solution to remove all traces of serum. • 2 ml of 0.2% trypsin/0.53 mM EDTA (ethylenediaminetetraacetic acid) solution was added to cells. • Flasks were returned to incubator for 5 rain to allow cells detachment • Add 6.0 ml of complete growth medium. • Single cell suspension was created by gently pipetting. • Cells are counted using a Hematocytometer and suspension with desirable cell concentration is prepared.
To test proliferation inhibition DU-145 cells were plated in 384-well plate at the density 4000 cells/well. Next day 4 mM solutions of compounds in DMSO were diluted 100 times in medium and added to cells to final concentration 20 uM (40 ul of cells+40 ul of compounds). Taxol at final concentration 1 uM was used as positive control. Cells were incubated with compounds for 3 days. After that Alamar-Blue was added to cells to a final concentration of 50 uM. After incubation for 4-6 hours at 37° C., fluorescence in plate was read using fluorescence plate reader Wallac 1420 (530 nm excitation filter, 590 nm emission filter). Proliferation inhibition was calculated using formula: % INH=100*((Fnegative−compound signal)/(Fnegative−Fpositive)), • Fnegative—DMSO was added to cells (viable cells) • Fpositive—taxol (1 uM) was added to cells (number of cells at the first day of incubation)

Compound	IC50 [nM]
CCCCn1c(-c2nonc2NC(=O)c2ccccc2Cl)nc2ccccc21 [Example 1, 2-Chloro-N^1-[4-(1-butyl-1H-1,3-benzimidazol-2-yl)-1,2,5-oxadiazol-3-yl]benzamide]	290
CC(C)Cn1c(-c2nonc2NC(=O)c2ccccc2Cl)nc2ccccc21 [Example 2, 2-Chloro-N^1-[4-(1-isobutyl-1H-1,3-benzimidazol-2-yl)-1,2,5-oxadiazol-3-yl]benzamide]	280
C=CCn1c(-c2nonc2NC(=O)c2ccccc2Cl)nc2ccccc21 [Example 3, 2-Chloro-N^1-[4-(1-allyl-1H-1,3-benzimidazol-2-yl)-1,2,5-oxadiazol-3-yl]benzamide]	890
CCOc1ccccc1C(=O)Nc1nonc1-c1ccc(OC)cc1 [Example 5, 2-Ethoxy-N^1-[4-(4-methoxyphenyl)-1,2,5-oxadiazol-3-yl]benzamide]	980
CCCOc1ccccc1C(=O)Nc1nonc1-c1ccc(OC)cc1 [Example 6, 2-Propoxy-N^1-[4-(4-methoxyphenyl)-1,2,5-oxadiazol-3-yl]benzamide]	850
CCOc1ccc(-c2nonc2NC(=O)c2ccccc2OCC)cc1 [Example 7, 2-Ethoxy-N^1-[4-(4-ethoxyphenyl)-1,2,5-oxadiazol-3-yl]benzamide]	120
CCCOc1ccccc1C(=O)Nc1nonc1-c1ccc(OCC)cc1 [Example 8, 2-Propoxy-N^1-[4-(4-ethoxyphenyl)-1,2,5-oxadiazol-3-yl]benzamide]	340
CCCCOc1ccccc1C(=O)Nc1nonc1-c1ccc(OCC)cc1 [Example 9, 2-Butoxy-N^1-[4-(4-ethoxyphenyl)-1,2,5-oxadiazol-3-yl]benzamide]	850
CCOc1ccc(-c2nonc2NC(=O)c2ccccc2OCC)cc1C [Example 10, 2-Ethoxy-N^1-[4-(4-ethoxy-3-methylphenyl)-1,2,5-oxadiazol-3-yl]benzamide]	860
CCCOc1ccccc1C(=O)Nc1nonc1-c1ccc(OCC)c(C)c1 [Example 11, 2-Propoxy-N^1-[4-(4-ethoxy-3-methylphenyl)-1,2,5-oxadiazol-3-yl]benzamide]	930
CCOc1ccc(-c2nonc2NC(=O)c2oc3ccc(Cl)cc3c2C)cc1 [Example 12, 5-chloro-N^2-[4-(4-ethoxyphenyl)-1,2,5-oxadiazol-3-yl]-3-methyl-1-benzofuran-2-carboxamide]	950

Same assay, conditions: DU-145 human prostate carcinoma cells, 3 days incubation, Alamar-Blue fluorescence

Compound	IC50 [nM]
CCOC(=O)Cn1c(-c2nonc2NC(=O)c2ccccc2F)nc2ccccc21 [Example 4, Ethyl 2-(2-4-[(2-fluorobenzoyl)amino]-1,2,5-oxadiazol-3-yl-1H-1,3-benzimidazol-1-yl)acetate]	320

— patent US8362047B1, “Anti-cancer agents based on 4-(hetero)Ary1-1,2,5-oxadiazol-3-yl Amino derivatives and a method of making” (U.S. Department of Energy, priority 2010, dated 2013)
